Laboratory results from patent US8680133B2, “Alkyl indole-3-carbinol-derived antitumor agents” (The Ohio State University Research Foundation, priority 2009, dated 2014).

System: PC-3 xenograft tumor
Assay: PC-3 xenograft tumor growth in nude mice, oral gavage
Assay type: in vivo
Settings: after 7 weeks, P<0.05
Protocol: FIG. 2 provides three graphs (A-C) showing the in vivo effects of OSU-A9M (C) versus OSU-A9 (A) and OSU-A9 F (B), each at 25 and 50 mg/kg per day by oral gavage, on suppressing PC-3 xenograft tumor growth in nude mice (n=6).
The efficacy studies were therefore repeated with OSU-A9M and OSU-A9F, following 42 days and 49 days treatment, respectively, versus OSU-A9 with 49-day treatment.
In all three treatments, the body weights of drug-treated mice were not affected. No signs of overt toxicity were observed.

Cc1ccc2c(c1)c(CO)cn2S(=O)(=O)c1ccc(Cl)c([N+](=O)[O-])c1 [OSU-A9M, [1-(4-chloro-3-nitro-benzenesulfonyl)-5-methyl-1H-indol-3-yl]-methanol]
Suppression of the volume of PC-3 tumor growth (25 mg/kg per day by gavage): 44.0% | Suppression of the volume of PC-3 tumor growth (50 mg/kg per day by gavage): 67.6%
